# Measured values published in patent publication US9656962B2, “Ring-contracted morphinans and the use thereof” (Purdue Pharma L.P., priority 2013, dated 2017).
# Assays:
# κ-opioid receptor [1] = molecular target: T1, κ-opioid receptor (Homo sapiens (Human), UniProt P41145); test: κ-opioid receptor [35S]GTPγS functional assay, U-2 OS cells (Table 5); assay type: biochemical
# Method in brief: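 [35S]GTPγS binding in κ receptor membranes (0.026 μg/μl protein) with 10 μg/mL saponin, 3 μM GDP and 0.20 nM [35S]GTPγS in pH 7.4 HEPES/NaCl/MgCl2 buffer. Agonist incubation lasted 30 min at about 25 °C, followed by filtration and scintillation counting. Emax is expressed relative to U69,593.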
# [2] = molecular target: human opioid receptor-like receptor (ORL-1) (Homo sapiens (Human), UniProt P41146); test: ORL-1 receptor radioligand binding assay ([3H]-nociceptin); details: binding affinity, bound given in μM, read-out: Ki ORL-1
# Procedure: ORL-1 Receptor Binding Assay Procedure: Membranes from recombinant HEK-293 cells expressing the human opioid receptor-like receptor (ORL-1) (Perkin Elmer, Shelton, Conn.) was prepared by lysing cells in ice-cold hypotonic buffer (2.5 mM MgCl2, 50 mM HEPES, pH 7.4) (10 ml/10 cm dish) followed by homogenization with a tissue grinder/Teflon pestle. Membranes were collected by centrifugation at 30,000×g for 15 min at 4° C. and pellets resuspended in hypotonic buffer to a final concentration of 1-3 mg/ml. Protein concentrations were determined using the BioRad protein assay reagent with bovine serum albumen as standard. Aliquots of the ORL-1 receptor membranes were stored at −80° C.
# Radioligand binding assays (screening and dose-displacement) use 0.1 nM [^3H]-nociceptin (Perkin Elmer, Shelton, Conn.; 87.7 Ci/mmole) with 12 μg membrane protein in a final volume of 500 μl binding buffer (10 mM MgCl2, 1 mM EDTA, 5% DMSO, 50 mM HEPES, pH 7.4). Non-specific binding was determined in the presence of […] unlabeled nociceptin (American Peptide Company). […] Fifty μl/well scintillation cocktail (Perkin Elmer, Shelton, Conn.) was added and plates are counted in a Packard Top-Count for 1 min/well. The data from screening and dose-displacement experiments were analyzed using Microsoft Excel and the curve fitting functions in GraphPad PRISM™, v. […]
# κ-opioid receptor [3] = molecular target: T1, κ-opioid receptor; test: κ-opioid receptor [35S]GTPγS functional assay, HEK-293 or CHO cells (Table 4); assay type: biochemical
# μ-opioid receptor = μ-opioid receptor (Homo sapiens (Human), UniProt P35372); test: μ-opioid receptor [35S]GTPγS functional assay, HEK-293 or CHO cells (Table 4); assay type: biochemical
# Method in brief: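 Membranes from HEK-293, CHO or U-2 OS cells (or commercial) expressing recombinant μ receptor; 0.20 nM [35S]GTPγS, 3 mM GDP, saponin, in 100 mM NaCl/10 mM MgCl2/20 mM HEPES pH 7.4.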
compound,measurement,setting,value
"NC(=O)[C@@H]1C[C@]23CCN(CC4CC4)[C@H](Cc4ccc(O)cc42)[C@]3(O)C1 [Compound 31, (2R,3aS,4R,9bS)-12-(cyclopropylmethyl)-3a,8-dihydroxy-1,2,3,3a,4,5-hexahydro-4,9b-(epiminoethano)cyclopenta-[a]naphthalene-2-carboxamide]",Emax,"κ-opioid receptor [1]; relative to U69,593",87.5 ± 5.04%
same,EC50,κ-opioid receptor [1]; κ GTP,2.62 ± 0.024 nM
same,Ki,[2],> 20 µM
same,Emax,"κ-opioid receptor [3]; relative to U69,593",35.3 ± 2.19%
same,EC50,κ-opioid receptor [3]; κ GTP,6.95 ± 0.97 nM
same,Emax,μ-opioid receptor; relative to DAMGO,1%
same,EC50,"μ-opioid receptor; μ GTP, bound given in μM",> 20 µM
